Reference: patent publication US9353082B2, “Pharmaceutical compounds” (BIAL—PORTELA & CA, S.A., priority 2008, dated 2016)

Key:
FAAH [1] = target: T1, FAAH (Rattus norvegicus, UniProt P97612); experiment: In vitro FAAH activity in rat brain membranes, 3H-AEA substrate, % of control; assay type: biochemical, Wistar rats; settings: low value = strong inhibitor; for In Vitro FAAH activity, 100 nM: 100 nM test compound; for In Vitro FAAH activity, 10 uM: 10 uM test compound
T1 construct: Frozen brains (without cerebellum) from Wistar rats were used; from tissue; host or cells: Wistar rat brain (without cerebellum), washed membrane pellets
T1 sequence (P97612 1-579): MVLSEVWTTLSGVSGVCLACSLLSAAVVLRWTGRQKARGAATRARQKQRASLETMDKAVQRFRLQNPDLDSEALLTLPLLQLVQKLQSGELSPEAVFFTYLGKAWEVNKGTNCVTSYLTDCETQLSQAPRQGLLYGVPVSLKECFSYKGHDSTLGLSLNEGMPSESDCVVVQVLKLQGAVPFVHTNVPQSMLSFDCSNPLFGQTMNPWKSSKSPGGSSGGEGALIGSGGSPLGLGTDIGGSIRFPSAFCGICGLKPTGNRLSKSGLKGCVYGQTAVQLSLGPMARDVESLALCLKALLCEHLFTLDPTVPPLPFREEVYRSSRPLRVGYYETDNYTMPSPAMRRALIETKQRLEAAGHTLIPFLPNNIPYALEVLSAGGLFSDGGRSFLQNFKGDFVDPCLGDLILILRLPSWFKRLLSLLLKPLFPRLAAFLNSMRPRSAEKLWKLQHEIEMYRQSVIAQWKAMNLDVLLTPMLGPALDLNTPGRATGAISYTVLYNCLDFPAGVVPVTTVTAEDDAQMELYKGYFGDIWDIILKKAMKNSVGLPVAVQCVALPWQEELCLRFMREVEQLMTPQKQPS
Summary of the method: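 FAAH activity measured as 3H-ethanolamine released from 2 μM [3H]AEA over 10 min by rat brain membrane preparation, after 15 min 37 °C preincubation with test compound at 10 or 0.1 μM. Charcoal-separated supernatant scintillation-counted; values expressed as % of control minus no-protein blank.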

FAAH [2] = target: T2, FAAH (Mus musculus, UniProt O08914); experiment: In vivo FAAH inhibition after oral dosing, remaining activity in brain homogenate (BRh, central nervous tissue); design: species or system NMRI mice; settings: brain homogenate
T2 construct: A fragment of liver, left lung lobe and brain without cerebellum were removed; from tissue; host or cells: male NMRI mice; brain (without cerebellum) and liver homogenates
T2 sequence (O08914 1-579): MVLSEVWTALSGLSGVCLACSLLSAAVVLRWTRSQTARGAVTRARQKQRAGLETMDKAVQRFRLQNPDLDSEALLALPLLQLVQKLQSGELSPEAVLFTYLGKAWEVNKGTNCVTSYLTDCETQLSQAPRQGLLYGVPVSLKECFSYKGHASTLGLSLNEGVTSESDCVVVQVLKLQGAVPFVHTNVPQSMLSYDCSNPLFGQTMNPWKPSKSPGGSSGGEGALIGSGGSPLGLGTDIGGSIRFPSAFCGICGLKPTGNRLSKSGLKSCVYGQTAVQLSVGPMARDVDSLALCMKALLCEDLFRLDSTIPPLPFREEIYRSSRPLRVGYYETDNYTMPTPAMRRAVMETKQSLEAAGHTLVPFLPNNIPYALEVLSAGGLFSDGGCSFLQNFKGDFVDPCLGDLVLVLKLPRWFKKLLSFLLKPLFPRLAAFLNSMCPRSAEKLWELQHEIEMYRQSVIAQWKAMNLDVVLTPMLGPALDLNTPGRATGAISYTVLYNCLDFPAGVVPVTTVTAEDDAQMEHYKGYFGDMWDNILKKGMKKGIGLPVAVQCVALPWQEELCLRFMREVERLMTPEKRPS
Summary of the method: (§1)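 Remaining FAAH activity is given as % of vehicle-treated controls after blank subtraction, measured by radiolabelled AEA hydrolysis (2 μM AEA, 5 nM 3H-AEA, 37 °C) in brain (10 min) or liver (7 min) homogenates. These came from fasted male NMRI mice dosed orally at 30 or 3 mg/kg.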

FAAH [3] = target: T2, FAAH; experiment: In vivo FAAH inhibition after oral dosing, remaining activity in liver homogenate (LVh, peripheral tissue); design: species or system NMRI mice; settings: liver homogenate
Summary of the method: as §1

[4] = 3 mg/kg oral, 8 h, low value = strong inhibitor

SMILES | In Vitro FAAH activity, 100 nM (FAAH [1]) | In Vitro FAAH activity, 10 uM (FAAH [1]) | In Vivo BRh 30 mg/kg 1 h, remaining FAAH activity (FAAH [2]) | In Vivo LVh 30 mg/kg 1 h, remaining FAAH activity (FAAH [3]) | In Vivo BRh 3 mg/kg 8 h, remaining FAAH activity (FAAH [2]; 8 h) | In Vivo LVh 3 mg/kg 8 h, remaining FAAH activity (FAAH [3]; 8 h) | In Vivo BRh 3 mg · kg · 8 h (remaining FAAH activity) (FAAH [2]; [4]) | In Vivo LVh 3 mg · kg · 8 h (remaining FAAH activity) (FAAH [3]; [4])
CN(C(=O)n1cnc(-c2ccccc2)c1)c1ccccc1 [Compound 4, N-methyl-N,4-diphenyl-1H-imidazole-1-carboxamide] | 83.6 % of control | 0.1 % of control | 14.3 % of control | 10.6 % of control | – | – | – | –
CN(C(=O)n1cnc(-c2ccc3ccccc3c2)c1)c1ccccc1 [Compound 14, N-methyl-4-(naphthalen-2-yl)-N-phenyl-1H-imidazole-1-carboxamide] | 68.3 % of control | 0 % of control | 96.7 % of control | 77.3 % of control | – | – | – | –
O=C(N1CCOCC1)n1nnc2ccccc21 [Compound 19, (1H-benzo[d][1,2,3]triazol-1-yl)(morpholino)methanone] | 3.1 % of control | 0.1 % of control | 46.6 % of control | 41.1 % of control | – | – | – | –
CN(C(=O)n1cnc(-c2ccc(F)cc2)c1)c1ccccc1 [Compound 29, 4-(4-fluorophenyl)-N-methyl-N-phenyl-1H-imidazole-1-carboxamide] | 52.5 % of control | 0 % of control | 10.7 % of control | 17.2 % of control | – | – | – | –
CN(C(=O)n1nnc2ccc(Cl)cc21)c1ccccc1 [Compound 32, 6-chloro-N-methyl-N-phenyl-1H-benzo[d][1,2,3]triazole-1-carboxamide] | 0.1 % of control | 0 % of control | 85.9 % of control | 64.9 % of control | – | – | – | –
CN(C(=O)n1nnc2cc(Cl)ccc21)c1ccccc1 [Compound 33, 5-chloro-N-methyl-N-phenyl-1H-benzo[d][1,2,3]triazole-1-carboxamide] | 6.2 % of control | 0 % of control | 82.3 % of control | 76.7 % of control | – | – | – | –
CN(C(=O)n1nnc2ccccc21)c1ccccc1 [Compound 34, N-methyl-N-phenyl-1H-benzo[d][1,2,3]triazole-1-carboxamide] | 0.6 % of control | 0 % of control | 33.6 % of control | 34.3 % of control | – | – | – | –
CN(C(=O)n1cnc(-c2cccc(O)c2)c1)c1ccccc1 [Compound 40, 4-(3-hydroxyphenyl)-N-methyl-N-phenyl-1H-imidazole-1-carboxamide] | 88.8 % of control | 0.1 % of control | 81.5 % of control | 4.5 % of control | 102.8 % of control | 25.6 % of control | – | –
O=C(N1CCN(c2ccccc2)CC1)n1nnc2ccccc21 [Compound 41, (1H-benzo[d][1,2,3]triazol-1-yl)(4-phenylpiperazin-1-yl)methanone] | 0 % of control | 0 % of control | 87.6 % of control | 30 % of control | – | – | – | –
O=C(N1CCC(Cc2ccccc2)CC1)n1nnc2ccccc21 [Compound 42, (1H-benzo[d][1,2,3]triazol-1-yl)(4-benzylpiperidin-1-yl)methanone] | 0 % of control | 0 % of control | 8.4 % of control | 6.4 % of control | – | – | – | –
O=C(N1CCN(Cc2ccc3c(c2)OCO3)CC1)n1nnc2ccccc21.O=C(O)C(=O)O [Compound 48, (1H-benzo[d][1,2,3]triazol-1-yl)(4-(benzo[d][1,3]dioxol-5-ylmethyl)piperazin-1-yl)methanone oxalate] | 0.1 % of control | – | 21.8 % of control | 20.1 % of control | – | – | – | –
O=C(N1CCN(c2ccccn2)CC1)n1nnc2ccccc21 [Compound 49, (1H-benzo[d][1,2,3]triazol-1-yl)(4-(pyridin-2-yl)piperazin-1-yl)methanone] | 0.1 % of control | – | 16.9 % of control | 14.9 % of control | – | – | – | –
O=C(N1CCc2ccccc2C1)n1nnc2ccccc21 [Compound 50, (1H-benzo[d][1,2,3]triazol-1-yl)(3,4-dihydroisoquinolin-2(1H)-yl)methanone] | 0 % of control | – | 32.6 % of control | 7.8 % of control | – | – | – | –
O=C(N1CCCc2ccccc21)n1cnc(-c2cccc(O)c2)c1 [Compound 51, (3,4-dihydroquinolin-1(2H)-yl)(4-(3-hydroxyphenyl)-1H-imidazol-1-yl)methanone] | 100.8 % of control | – | – | – | 130.4 % of control | 132.3 % of control | – | –
CN(Cc1ccccc1)C(=O)n1nnc2ccccc21 [Compound 53, N-benzyl-N-methyl-1H-benzo[d][1,2,3]triazole-1-carboxamide] | 0 % of control | – | 1.4 % of control | 6.3 % of control | – | – | – | –
O=C(N1CCC2(CC1)OCCO2)n1nnc2ccccc21 [Compound 55, 1H-benzo[d][1,2,3]triazol-1-yl(1,4-dioxa-8-azaspiro[4.5]dec-8-yl)methanone] | 0.2 % of control | – | 2.2 % of control | 2.5 % of control | 42.6 % of control | 37.8 % of control | – | –
CN(C(=O)n1nnc2ccccc21)C1CCCCC1 [Compound 58, N-cyclohexyl-N-methyl-1H-benzo[d][1,2,3]triazole-1-carboxamide] | 1 % of control | – | 0.3 % of control | 0.9 % of control | 0.5 % of control | 0.3 % of control | – | –
O=C(NCc1ccccc1)n1nnc2ccccc21 [Compound 61, N-benzyl-1H-benzo[d][1,2,3]triazole-1-carboxamide] | 2.2 % of control | – | 87.5 % of control | 83.9 % of control | – | – | – | –
COc1ccc(-c2cn(C(=O)N(C)C3CCN(CCO)CC3)cn2)cc1F [Compound no. 540, 4-(3-fluoro-4-methoxyphenyl)-N-(1-(2-hydroxyethyl)piperidin-4-yl)-N-methyl-1H-imidazole-1-carboxamide] | – | – | – | – | – | – | 89.7 % of control | 33.7 % of control
